Measured values as given in the NIST ThermoML archive (doi:10.1016/j.fluid.2005.06.010).

Experiment: xn = mol fraction of the nth substance listed
Conditions: Fluid (supercritical or subcritical phases), Vibrating tube method

c1ccc2ccccc2c1 [naphthalene] + O=C=O
Conditions | mass density [kg/m3]
318.11 K, 16084 kPa, x1 = 0.0093 | 785.19
318.11 K, 16667 kPa, x1 = 0.0065 | 790.99
318.11 K, 16960 kPa, x1 = 0.0093 | 796.88
318.11 K, 17000 kPa, x1 = 0.0049 | 787.78
318.11 K, 17635 kPa, x1 = 0.0065 | 803.78
318.11 K, 17984 kPa, x1 = 0.0093 | 809.07
318.11 K, 17995 kPa, x1 = 0.0049 | 800.44
318.11 K, 18460 kPa, x1 = 0.0065 | 812.58
318.11 K, 18977 kPa, x1 = 0.0049 | 811.61
318.11 K, 18989 kPa, x1 = 0.0093 | 819.91
318.11 K, 19176 kPa, x1 = 0.0065 | 820.58
318.11 K, 19789 kPa, x1 = 0.0093 | 827.92
318.11 K, 19904 kPa, x1 = 0.0065 | 827.96
318.11 K, 20045 kPa, x1 = 0.0049 | 822.71
318.11 K, 20953 kPa, x1 = 0.0093 | 838.54
318.11 K, 20963 kPa, x1 = 0.0049 | 831.61
318.11 K, 21000 kPa, x1 = 0.0065 | 838.23
318.11 K, 21926 kPa, x1 = 0.0065 | 846.14
318.11 K, 22004 kPa, x1 = 0.0049 | 840.84
318.11 K, 22031 kPa, x1 = 0.0093 | 847.64
318.11 K, 22694 kPa, x1 = 0.0093 | 852.96
318.11 K, 22962 kPa, x1 = 0.0049 | 848.85
318.11 K, 22968 kPa, x1 = 0.0065 | 854.56
318.11 K, 23517 kPa, x1 = 0.0093 | 859.24
318.11 K, 23867 kPa, x1 = 0.0065 | 861.51
318.11 K, 24017 kPa, x1 = 0.0049 | 857.07
318.11 K, 24931 kPa, x1 = 0.0093 | 869.34
318.11 K, 24993 kPa, x1 = 0.0065 | 869.51
318.13 K, 9447 kPa, x1 = 0.0038 | 467.84
318.13 K, 9511 kPa, x1 = 0.0038 | 479.86
318.13 K, 9624 kPa, x1 = 0.0038 | 500.05
318.13 K, 9723 kPa, x1 = 0.0038 | 516.4
318.13 K, 9815 kPa, x1 = 0.0038 | 530.29
318.13 K, 10026 kPa, x1 = 0.0038 | 558.2
318.13 K, 11028 kPa, x1 = 0.0038 | 638.56
318.13 K, 12034 kPa, x1 = 0.0038 | 682.9
318.13 K, 13013 kPa, x1 = 0.0038 | 712.68
318.13 K, 14016 kPa, x1 = 0.0038 | 736.26
318.13 K, 15020 kPa, x1 = 0.0038 | 755.47
318.13 K, 15435 kPa, x1 = 0.0214 | 798.75
318.13 K, 15510 kPa, x1 = 0.0214 | 799.63
318.13 K, 15611 kPa, x1 = 0.0214 | 800.92
318.13 K, 15832 kPa, x1 = 0.0214 | 803.59
318.13 K, 16002 kPa, x1 = 0.0038 | 771.53
318.13 K, 16016 kPa, x1 = 0.0214 | 805.76
318.13 K, 16531 kPa, x1 = 0.0214 | 811.8
318.13 K, 16555 kPa, x1 = 0.0204 | 810.95
318.13 K, 17029 kPa, x1 = 0.0214 | 817.29
318.13 K, 17033 kPa, x1 = 0.0038 | 786.19
318.13 K, 17049 kPa, x1 = 0.0204 | 816.49
318.13 K, 17588 kPa, x1 = 0.0204 | 822.21
318.13 K, 18000 kPa, x1 = 0.0214 | 827.3
318.13 K, 18021 kPa, x1 = 0.0038 | 798.72
318.13 K, 18067 kPa, x1 = 0.0204 | 827.01
318.13 K, 18584 kPa, x1 = 0.0204 | 832.05
318.13 K, 19038 kPa, x1 = 0.0038 | 810.39
318.13 K, 19046 kPa, x1 = 0.0214 | 837.22
318.13 K, 19123 kPa, x1 = 0.0204 | 837.04
318.13 K, 19537 kPa, x1 = 0.0204 | 840.73
318.13 K, 20002 kPa, x1 = 0.0038 | 820.43
318.13 K, 20016 kPa, x1 = 0.0214 | 845.63
318.13 K, 20055 kPa, x1 = 0.0204 | 845.16
318.13 K, 20564 kPa, x1 = 0.0204 | 849.36
318.13 K, 21012 kPa, x1 = 0.0214 | 853.76
318.13 K, 21027 kPa, x1 = 0.0038 | 830.26
318.13 K, 21058 kPa, x1 = 0.0204 | 853.31
318.13 K, 21568 kPa, x1 = 0.0204 | 857.24
318.13 K, 22015 kPa, x1 = 0.0038 | 839.08
318.13 K, 22015 kPa, x1 = 0.0214 | 861.35
318.13 K, 22022 kPa, x1 = 0.0204 | 860.61
318.13 K, 22506 kPa, x1 = 0.0204 | 864.13
318.13 K, 23014 kPa, x1 = 0.0038 | 847.4
318.13 K, 24022 kPa, x1 = 0.0038 | 855.31
318.13 K, 25018 kPa, x1 = 0.0038 | 862.63
318.14 K, 19647 kPa, x1 = 0.0237 | 845.05
318.14 K, 19720 kPa, x1 = 0.0237 | 845.71
318.14 K, 19769 kPa, x1 = 0.0237 | 846.15
318.14 K, 19815 kPa, x1 = 0.0237 | 846.6
318.14 K, 19868 kPa, x1 = 0.0237 | 847.1
318.14 K, 19940 kPa, x1 = 0.0237 | 847.81
318.14 K, 20042 kPa, x1 = 0.0237 | 848.76
318.14 K, 20202 kPa, x1 = 0.0237 | 850.16
318.14 K, 20409 kPa, x1 = 0.0237 | 851.93
318.14 K, 20762 kPa, x1 = 0.0237 | 854.79
318.14 K, 21268 kPa, x1 = 0.0237 | 858.75
318.14 K, 21759 kPa, x1 = 0.0237 | 862.5
318.14 K, 22256 kPa, x1 = 0.0237 | 866.12
318.14 K, 22769 kPa, x1 = 0.0237 | 869.73
318.14 K, 23308 kPa, x1 = 0.0237 | 873.42
318.14 K, 23561 kPa, x1 = 0.0237 | 875.25
323.03 K, 14061 kPa, x1 = 0.0198 | 735.87
323.03 K, 14281 kPa, x1 = 0.0198 | 740.33
323.03 K, 14482 kPa, x1 = 0.0198 | 744.21
323.03 K, 15014 kPa, x1 = 0.0198 | 753.86
323.03 K, 16032 kPa, x1 = 0.0198 | 770.24
323.03 K, 17031 kPa, x1 = 0.0198 | 784.26
323.03 K, 18075 kPa, x1 = 0.0198 | 797.2
323.03 K, 19028 kPa, x1 = 0.0198 | 807.85
323.03 K, 20080 kPa, x1 = 0.0198 | 818.58
323.03 K, 21050 kPa, x1 = 0.0198 | 827.65
323.03 K, 22246 kPa, x1 = 0.0198 | 838
323.03 K, 24029 kPa, x1 = 0.0198 | 851.96
323.03 K, 24780 kPa, x1 = 0.0198 | 857.36
323.06 K, 16579 kPa, x1 = 0.0276 | 788.12
323.06 K, 16788 kPa, x1 = 0.0276 | 790.83
323.06 K, 17004 kPa, x1 = 0.0276 | 793.51
323.06 K, 17203 kPa, x1 = 0.0276 | 795.99
323.06 K, 17382 kPa, x1 = 0.0276 | 798.16
323.06 K, 17590 kPa, x1 = 0.0276 | 800.59
323.06 K, 17798 kPa, x1 = 0.0276 | 803
323.06 K, 18018 kPa, x1 = 0.0276 | 805.49
323.06 K, 18224 kPa, x1 = 0.0276 | 807.76
323.06 K, 18490 kPa, x1 = 0.0276 | 810.6
323.06 K, 18694 kPa, x1 = 0.0276 | 812.78
323.06 K, 19009 kPa, x1 = 0.0276 | 816
323.06 K, 19476 kPa, x1 = 0.0276 | 820.59
323.06 K, 19995 kPa, x1 = 0.0276 | 825.42
323.06 K, 21006 kPa, x1 = 0.0276 | 834.34
323.06 K, 22002 kPa, x1 = 0.0276 | 842.55
323.06 K, 22987 kPa, x1 = 0.0276 | 850.05
323.06 K, 24002 kPa, x1 = 0.0276 | 857.32
323.06 K, 24701 kPa, x1 = 0.0276 | 862.06
323.07 K, 10356 kPa, x1 = 0.0049 | 477.23
323.07 K, 10584 kPa, x1 = 0.0049 | 504.85
323.07 K, 11014 kPa, x1 = 0.0049 | 548.62
323.07 K, 11189 kPa, x1 = 0.0093 | 594.87
323.07 K, 11528 kPa, x1 = 0.0093 | 616.57
323.07 K, 12026 kPa, x1 = 0.0093 | 642.38
323.07 K, 12054 kPa, x1 = 0.0049 | 619.66
323.07 K, 12157 kPa, x1 = 0.0144 | 663.68
323.07 K, 12308 kPa, x1 = 0.0144 | 669.44
323.07 K, 12400 kPa, x1 = 0.0144 | 672.76
323.07 K, 12573 kPa, x1 = 0.0144 | 678.74
323.07 K, 12986 kPa, x1 = 0.0144 | 691.87
323.07 K, 12997 kPa, x1 = 0.0049 | 660.38
323.07 K, 13031 kPa, x1 = 0.0093 | 680.85
323.07 K, 13495 kPa, x1 = 0.0144 | 706.09
323.07 K, 14001 kPa, x1 = 0.0093 | 708.22
323.07 K, 14001 kPa, x1 = 0.0144 | 718.59
323.07 K, 14013 kPa, x1 = 0.0049 | 692.38
323.07 K, 14975 kPa, x1 = 0.0093 | 730.03
323.07 K, 15034 kPa, x1 = 0.0049 | 717.29
323.07 K, 15051 kPa, x1 = 0.0144 | 740.61
323.07 K, 15260 kPa, x1 = 0.0235 | 764.21
323.07 K, 15541 kPa, x1 = 0.0235 | 768.75
323.07 K, 15987 kPa, x1 = 0.0049 | 736.48
323.07 K, 15999 kPa, x1 = 0.0144 | 757.24
323.07 K, 16027 kPa, x1 = 0.0235 | 776.04
323.07 K, 16061 kPa, x1 = 0.0093 | 750.23
323.07 K, 16993 kPa, x1 = 0.0093 | 765.16
323.07 K, 17000 kPa, x1 = 0.0144 | 772.5
323.07 K, 17006 kPa, x1 = 0.0049 | 753.98
323.07 K, 17013 kPa, x1 = 0.0235 | 790.56
323.07 K, 18007 kPa, x1 = 0.0235 | 801.9
323.07 K, 18016 kPa, x1 = 0.0049 | 769.15
323.07 K, 18016 kPa, x1 = 0.0144 | 786.14
323.07 K, 18045 kPa, x1 = 0.0093 | 779.85
323.07 K, 18986 kPa, x1 = 0.0049 | 782.09
323.07 K, 18996 kPa, x1 = 0.0144 | 797.91
323.07 K, 19008 kPa, x1 = 0.0235 | 812.85
323.07 K, 19015 kPa, x1 = 0.0093 | 791.95
323.07 K, 19996 kPa, x1 = 0.0093 | 803.09
323.07 K, 20004 kPa, x1 = 0.0049 | 794.32
323.07 K, 20013 kPa, x1 = 0.0144 | 809.02
323.07 K, 20026 kPa, x1 = 0.0235 | 822.87
323.07 K, 20987 kPa, x1 = 0.0049 | 805.12
323.07 K, 20996 kPa, x1 = 0.0235 | 831.78
323.07 K, 21016 kPa, x1 = 0.0093 | 813.7
323.07 K, 21017 kPa, x1 = 0.0144 | 819.02
